SMILES strings stand for the structures.

The values below come from patent US20170312260A1 (LAUNX BIOMEDICAL CO., LTD., priority 2014, published 2017).

This assay deals with cancers cell lines. As to the kind of experiment: Inhibition test on all kinds of cancer cell lines (overall statement). In kind it is cell-based. Particulars: several / various cancer cell lines, Table 18, FIG. 1. On the procedure: The cell numbers were counted and reseed as 2×10^6 in cell culture plate/flask. Then, the culture medium were added to a volume of 10 ml, and the cells were cultured for 2-3 days. Then, the cells were suspended for loading into 96-well plates. The number of cells was 3000 and the volume of the culture medium was 100 μl each well.
Removing the original culture medium from 96-well plate. Then add 100 μl of commercially drug at a concentration of 10 μM per well. After 72 hours, add the diluted WST-1 reagent to the well with 100 μl/well, and the diluted WST-1 reagent was acquired from the dilution of 9:1 medium and WST-1 stock reagent. Finally, the total volume of each well was 200 μl/well. Culture the 96-well plate at 37° C. for 30 to 90 minutes. Detecting and calculate the survival rate of each cancer cells with an ELISA reader at OD450 nm.
As a result in the experiments of the present invention.

For the compound `Fc1ccc([C@@H]2CCNC[C@H]2COc2ccc3c(c2)OCO3)cc1` [Paroxetine], the “inhibitory effect on cancer cell lines (in words)” value is given as “significant inhibitory effect”.
